Measurements reported in the NIST ThermoML archive (doi:10.1016/j.jct.2003.08.018).
± gives the expanded uncertainty stated by the source. Blank lines part the entries; values can stand above or below the compound they belong to.

Assay: activity coefficient (dimensionless); of the first substance listed, at infinite dilution; xn = mol fraction of the nth substance listed
Details: Liquid, Chromatography, x1 = 0

activity coefficient (259.98 K): 5.48 ± 0.24 | activity coefficient (279.94 K): 5.37 ± 0.24 | activity coefficient (300.16 K): 5.24 ± 0.23 | activity coefficient (320 K): 5.14 ± 0.23 | activity coefficient (339.92 K): 5.05 ± 0.22
SMILES: CC(C)C [2-methylpropane] + CCCO

activity coefficient (260.03 K): 4.13 ± 0.18 | activity coefficient (280.04 K): 4.12 ± 0.18 | activity coefficient (299.98 K): 4.11 ± 0.18 | activity coefficient (320.03 K): 4.05 ± 0.18 | activity coefficient (340 K): 4.01 ± 0.18
SMILES: C=CCC [1-butene] + CCCO

SMILES: C=CC=C [1,3-butadiene] + CCCO
activity coefficient (260.02 K): 4.2 ± 0.19 | activity coefficient (280.03 K): 4.15 ± 0.18 | activity coefficient (299.99 K): 4.1 ± 0.18 | activity coefficient (320.09 K): 4.06 ± 0.18 | activity coefficient (340.06 K): 3.98 ± 0.18

activity coefficient (259.92 K): 3.58 ± 0.16 | activity coefficient (279.94 K): 3.61 ± 0.16 | activity coefficient (300.03 K): 3.66 ± 0.16 | activity coefficient (320.02 K): 3.64 ± 0.16 | activity coefficient (340.1 K): 3.64 ± 0.16
SMILES: C=CC [propene] + CCCO

activity coefficient (259.91 K): 4.09 ± 0.18 | activity coefficient (279.95 K): 4.08 ± 0.18 | activity coefficient (299.94 K): 4.04 ± 0.18 | activity coefficient (320.06 K): 4 ± 0.18 | activity coefficient (340.16 K): 3.94 ± 0.17
SMILES: C=C(C)C [2-methylpropene] + CCCO

activity coefficient (260.05 K): 5.17 ± 0.23 | activity coefficient (280.05 K): 5.06 ± 0.22 | activity coefficient (299.99 K): 5.03 ± 0.22 | activity coefficient (320.05 K): 4.88 ± 0.22
SMILES: CCCC [butane] + CCCO

activity coefficient (260.02 K): 4.2 ± 0.19 | activity coefficient (280.03 K): 4.15 ± 0.18 | activity coefficient (299.99 K): 4.1 ± 0.18 | activity coefficient (320.09 K): 4.06 ± 0.18 | activity coefficient (340.06 K): 3.98 ± 0.18
SMILES: C/C=C/C [(E)-2-butene] + CCCO

activity coefficient (259.98 K): 4.6 ± 0.2 | activity coefficient (279.96 K): 4.62 ± 0.2 | activity coefficient (299.96 K): 4.64 ± 0.2 | activity coefficient (320.03 K): 4.61 ± 0.2 | activity coefficient (339.95 K): 4.56 ± 0.2
SMILES: CCC [propane] + CCCO
